Results taken from US20150190410A1, “USE OF CREATINE AND PHOSPHOCREATINE IN THE TREATMENT OF EPILEPSY AND ALCOHOL ADDICTION” (Dignity Health, priority 2012, published 2015).
Where “and” joins values, the source holds several entries; their conditions need not be identical. Equal entries are not always repeated.

Assays:
[1] = tested on: atypical absence epilepsy rodent models; experiment: AY9944 atypical absence epilepsy rodent model: seizure number and seizure time under creatine; assay type: in vivo, rat
[2] = tested on: GABAA receptor expressing cells; experiment: Co-application with ethanol on GABAA receptor expressing cells; assay type: cell-based; conditions: depends on concentration relative to ethanol
From the text: Thus, in one embodiment, creatine, phosphocreatine and their analogs can be used to prevent and/or provide protection against alcohol addiction.
Alcoholism is a serious problem both to the individual, the individual's family, and society. Currently there is no compound that can effectively prevent alcoholism. Alcohol (Ethanol) acts as a positive allosteric modulator of extrasynaptic GABAA receptors. […] Thus creatine, phosphocreatine and their analogs may be used to prevent and/or provide protection against alcohol addiction.

[3] = tested on: atypical absence epilepsy rodent models; experiment: AY9944 atypical absence epilepsy rodent model: seizure number and seizure time under creatine; assay type: in vivo, rat; conditions: for Seizure # Between 13:00:00 to 15:00:00: twice daily injection of creatine at 30 mg/kg, individual epileptic animals
Experimental: • Induced via administering the cholesterol inhibitor AY9944 during postnatal developing period P2 to P21. • Epileptic seizure is chronic, resembling all the symptoms of atypical absence epilepsy • Failure to show ictal immobility • Slow spike-wave discharges • Cognitive impairments • Counterintuitive with application of GABA Positive allosteric modulators and Agonists. • Greater seizure susceptibility in female than male.
11 epileptic animals were treated initially with saline to establish base line (day 0), then treated with twice daily injection of creatine at 30 mg/kg (days 1-5). […] Specifically, the inventors performed the following: • Day 0—Control (saline injection) • Injection of creatine between days 1-5—twice daily injection of 30 mg/kg of creatine • Day #2 (30 mg/kg creatine) • Day #5 (30 mg/kg creatine)

[4] = tested on: extra-synaptic GABAA receptors; experiment: Allosteric modulation of extra-synaptic GABAA receptors (expression cells; whole cell patch clamp); assay type: cell-based
From the text: FIG. 3 depicts, in accordance with an embodiment herein, utilizing whole cell patch clamp on primary cultured neuron (rat cortex) to confirm creatine's effect on extra-synaptic GABAA receptors.

[5] = Day 2 vs Day 0 saline control, 30 mg/kg twice daily, individual animals, 30 mg/kg
[6] = Day 5 vs Day 0 saline control, 30 mg/kg twice daily, individual animals, 30 mg/kg
[7] = average of 11 animals, Day 2, 30 mg/kg twice daily
[8] = average of 11 animals, Day 5, 30 mg/kg twice daily

SMILES	duration of effect of a single dose compared to current antiepileptic drugs [1]	effect on the GABAA receptor positive allosteric modulator effect of alcohol (ethanol) [2]	Seizure # Between 13:00:00 to 15:00:00 ([3]; Day 2, 30 mg/kg)	% Seizure # Reduction, Day #2 Post Creatine/Control [3, 5]	% Total Seizure Time Reduction, Day #2 Post Creatine/Control [3, 5]	Seizure # Between 13:00:00 to 15:00:00 ([3]; Day 5, 30 mg/kg)	% Seizure # Reduction, Day #5 Post Creatine/Control [3, 6]	% Total Seizure Time Reduction, Day #5 Post Creatine/Control [3, 6]	% Seizure # Reduction, Day #2 Post Creatine/Control, Average [3, 7] [%]	% Total Seizure Time Reduction, Day #2 Post Creatine/Control, Average [3, 7] [%]	% Seizure # Reduction, Day #5 Post Creatine/Control, Average [3, 8] [%]	% Total Seizure Time Reduction, Day #5 Post Creatine/Control, Average [3, 8] [%]	reduction in duration of epileptic seizure events ([3]; epileptic rodent model)	reduction in frequency of epileptic seizure events ([3]; epileptic rodent model)	mode of action on extra-synaptic GABAA receptors [4]	therapeutic effect compared with creatine ([3]; atypical absence epilepsy rodent models)	effect on expression cells compared with creatine ([4]; expression cells)
CN(CC(=O)O)C(=N)N [creatine]	last much longer than conventional antiepileptic drugs	preventing or significantly diminishing	2 and 17 (2×) and 14 and 7 and 31 and 25 and 16 and 20 and 4 and 15	28.57% and 91.30% and 63.04% and 56.25% and 12.50% and 27.91% and 30.56% and 44.83% and 25.93% and 69.23% and 26.09%	63.25% and 80.95% and 92.74% and 82.31% and 52.13% and 40.86% and 76.08% and 73.42% and 89.95% and 85.75% and 74.05%	5 (2×) and 21 and 18 and 4 and 26 and 23 and 13 and 16 and 10 and 15	76.19% and 78.26% and 54.35% and 43.75% and 50.00% and 39.53% and 36.11% and 55.17% and 40.74% and 23.08% and 34.78%	86.37% and 70.56% and 58.23% and 70.52% and 46.23% and 35.72% and 80.58% and 85.99% and 92.36% and 36.75% and 74.61%	43.29	73.77	48.36	67.08	greater than 70%	greater than 70%	partial negative allosteric modulator		
NC1=NCCN1CC(=O)O [cyclocreatine]																does not confer the same therapeutic effect as creatine	
CN(CC(=O)O)C(=N)NP(=O)(O)O [phosphocreatine]		preventing or significantly diminishing															same effect as creatine
